Experiments:
[1] = biological target: IMP-1 (Serratia marcescens, UniProt P52699); assay: biochemical; assay type: biochemical; details: CCF2-FA substrate, 2 hours at 25° C; read-out: IMP-1 IC50
Procedure, shortened: (§1)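 Two-hour, 25° C incubation of enzyme with inhibitor and CCF2-FA (7-hydroxycoumarin–cephalosporin–fluorescein). Fluorescence read-out; IC50 via 4-parameter fit.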

[2] = biological target: NDM-1 (Klebsiella pneumoniae, UniProt C7C422); assay: biochemical; assay type: biochemical; details: CCF2-FA substrate, 2 hours at 25° C; read-out: NDM-1 IC50
Procedure, shortened: as §1

[3] = tested on: Escherichia coli expressing NDM-1 (CLB30005, CLB30016); assay type: cell-based; details: NDM-1 (CLB30016), with imipenem 1 μg/ml, 95% inhibition of bacterial growth
Procedure, shortened: (§2)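 Colonies from overnight 35 °C blood-agar cultures were suspended in saline, diluted 1:100 into 1.1× CAMHB and exposed to test compound with or without imipenem at 1 μg/ml. After 22–24 h at 35 °C, absorbance was read to find the concentration restoring imipenem susceptibility.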

[4] = tested on: Serratia marcescens expressing IMP-1 (CL5741); assay type: cell-based; details: IMP-1 (CL5741), with imipenem 1 μg/ml, 95% inhibition of bacterial growth
Procedure, shortened: as §2

[5] = tested on: Klebsiella pneumoniae expressing VIM-1 (IHMA599644); assay type: cell-based; details: VIM-1 (IHMA599644), with imipenem 1 μg/ml, 95% inhibition of bacterial growth
Procedure, shortened: as §2

[6] = tested on: P. aeruginosa expressing IMP-1, efflux− (MB9799); assay: Efflux: concentration of MBL inhibitor which restores susceptibility to imipenem; assay type: cell-based, Pseudomonas aeruginosa; details: imipenem at 2 μg/mL, in the presence of a class A, C, D serine β-lactamase inhibitor closely related to relebactam
Description: (§3) The strain background is Pseudomonas aeruginosa PAO1.

[7] = biological target: VIM-1 (Pseudomonas aeruginosa (strain ATCC 15692 / DSM 22644 / CIP 104116 / JCM 14847 / LMG 12228 / 1C / PRS 101 / PAO1), UniProt A0A0F7KYQ8); assay: biochemical; details: CCF2-FA substrate, 2 hours at 25° C
Procedure, shortened: as §1

[8] = tested on: P. aeruginosa expressing IMP-1, efflux+ (MB9798); assay type: cell-based, Pseudomonas aeruginosa; details: for P. aeruginosa expressing IMP-1, efflux+ (MB9798) MITC95: imipenem at 2 μg/mL, in the presence of a class A, C, D serine β-lactamase inhibitor closely related to relebactam; for Efflux ratio: ratio MITC95 PA_9798/MITC95 PA_9799
Description: as §3

Chain of IMP-1 (P52699 whole entry, looked up, species assumed): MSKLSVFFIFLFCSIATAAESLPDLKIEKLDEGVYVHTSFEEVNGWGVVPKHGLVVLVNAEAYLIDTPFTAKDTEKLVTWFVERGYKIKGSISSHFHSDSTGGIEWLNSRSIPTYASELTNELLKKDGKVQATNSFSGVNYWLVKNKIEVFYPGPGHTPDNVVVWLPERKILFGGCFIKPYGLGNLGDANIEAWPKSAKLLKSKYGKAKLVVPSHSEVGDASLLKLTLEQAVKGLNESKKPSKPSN
Chain of NDM-1 (C7C422 whole entry, looked up, species assumed): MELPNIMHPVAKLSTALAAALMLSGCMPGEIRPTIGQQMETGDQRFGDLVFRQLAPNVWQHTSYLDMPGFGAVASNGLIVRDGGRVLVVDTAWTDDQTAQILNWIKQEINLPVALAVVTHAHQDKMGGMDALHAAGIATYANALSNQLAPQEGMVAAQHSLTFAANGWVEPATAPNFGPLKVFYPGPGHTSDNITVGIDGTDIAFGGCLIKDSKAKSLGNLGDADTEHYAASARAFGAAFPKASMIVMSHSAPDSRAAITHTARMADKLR

Nc1nc2c(-c3ccc(S(=O)(=O)[C@@H]4CN[C@H](CO)C4)c(S(N)(=O)=O)c3-c3nn[nH]n3)cccc2s1 [Example 349, 3-(2-Aminobenzo[d]thiazol-4-yl)-6-(((3 S,5S)-5-(hydroxymethyl)pyrrolidin-3-yl)sulfonyl)-2-(2H-tetrazol-5-yl)benzenesulfonamide]
IC50 [1]: 220 pM
IC50 [2]: 65.9 pM
Escherichia coli MITC95 [3]: 3.125 µM
Serratia marcescens MITC95 [4]: 1.563 µM
Klebsiella pneumoniae MITC95 [5]: 3.125 µM
P. aeruginosa expressing IMP-1, efflux− (MB9799) MITC95 [6]: 1.563 µM
IC50 [7]: 452 pM
P. aeruginosa expressing IMP-1, efflux+ (MB9798) MITC95 [8]: 1.563 µM
Efflux ratio [8]: 1.00

Nc1nc2c(-c3ccc(S(=O)(=O)[C@@H]4CN[C@H](CO)C4)c(S(N)(=O)=O)c3-c3nn[nH]n3)cccc2[nH]1 [Example 350, 3-(2-Amino-1H-benzo[d]imidazol-4-yl)-6-(((3S,5S)-5-(hydroxymethyl)pyrrolidin-3-yl)sulfonyl)-2-(2H-tetrazol-5-yl)benzenesulfonamide]
IC50 [1]: 982 pM
IC50 [2]: 250 pM
Escherichia coli MITC95 [3]: 0.7813 µM
Serratia marcescens MITC95 [4]: 1.563 µM
Klebsiella pneumoniae MITC95 [5]: 3.125 µM
P. aeruginosa expressing IMP-1, efflux− (MB9799) MITC95 [6]: 1.563 µM
IC50 [7]: 674 pM
P. aeruginosa expressing IMP-1, efflux+ (MB9798) MITC95 [8]: 1.563 µM
Efflux ratio [8]: 1.00

NC[C@H](CO)S(=O)(=O)c1ccc(-c2cccc3nc(N)[nH]c23)c(-c2nn[nH]n2)c1S(N)(=O)=O [Example 351, (R)-3-(2-amino-1H-benzo[d]imidazol-7-yl)-6-((1-amino-3-hydroxypropan-2-yl)sulfonyl)-2-(1H-tetrazol-5-yl)benzenesulfonamide]
IC50 [1]: 1360 pM
IC50 [2]: 200 pM
Escherichia coli MITC95 [3]: 0.7813 µM
Serratia marcescens MITC95 [4]: 0.7813 µM
Klebsiella pneumoniae MITC95 [5]: 1.563 µM
P. aeruginosa expressing IMP-1, efflux− (MB9799) MITC95 [6]: 0.7813 µM
IC50 [7]: 711 pM
P. aeruginosa expressing IMP-1, efflux+ (MB9798) MITC95 [8]: 0.7813 µM
Efflux ratio [8]: 1.00

NC[C@@H](O)CS(=O)(=O)c1ccc(-c2cccc3sc(N)nc23)c(-c2nn[nH]n2)c1S(N)(=O)=O [Example 352, (R)-6-((3-amino-2-hydroxypropyl)sulfonyl)-3-(2-aminobenzo[d]thiazol-4-yl)-2-(2H-tetrazol-5-yl) benzenesulfonamide]
IC50 [1]: 145 pM
IC50 [2]: 65.8 pM
Escherichia coli MITC95 [3]: 0.7813 µM
Serratia marcescens MITC95 [4]: 0.7813 µM
Klebsiella pneumoniae MITC95 [5]: 1.563 µM
P. aeruginosa expressing IMP-1, efflux− (MB9799) MITC95 [6]: 0.7813 µM
IC50 [7]: 255 pM
P. aeruginosa expressing IMP-1, efflux+ (MB9798) MITC95 [8]: 0.3906 µM

NC[C@H](O)CS(=O)(=O)c1ccc(-c2cccc3[nH]cnc23)c(-c2nn[nH]n2)c1S(N)(=O)=O [Example 353, (S)-6-((3-amino-2-hydroxypropyl)sulfonyl)-3-(1H-benzo[d]imidazol-4-yl)-2-(2H-tetrazol-5-yl) benzenesulfonamide]
IC50 [1]: 392 pM
IC50 [2]: 185 pM
Escherichia coli MITC95 [3]: 1.563 µM
Serratia marcescens MITC95 [4]: 1.563 µM
Klebsiella pneumoniae MITC95 [5]: 3.125 µM
P. aeruginosa expressing IMP-1, efflux− (MB9799) MITC95 [6]: 0.7813 µM
IC50 [7]: 202 pM
P. aeruginosa expressing IMP-1, efflux+ (MB9798) MITC95 [8]: 0.7813 µM
Efflux ratio [8]: 1.00

NCCCS(=O)(=O)c1ccc(-c2cccc3[nH]cnc23)c(-c2nn[nH]n2)c1S(N)(=O)=O [Example 354, 6-((3-aminopropyl)sulfonyl)-3-(1H-benzo[d]imidazol-7-yl)-2-(1H-tetrazol-5-yl) benzenesulfonamide]
IC50 [1]: 275 pM
IC50 [2]: 226 pM
Escherichia coli MITC95 [3]: 0.7813 µM
Serratia marcescens MITC95 [4]: 0.7813 µM
Klebsiella pneumoniae MITC95 [5]: 1.563 µM
P. aeruginosa expressing IMP-1, efflux− (MB9799) MITC95 [6]: 0.7813 µM
IC50 [7]: 162 pM
P. aeruginosa expressing IMP-1, efflux+ (MB9798) MITC95 [8]: 0.7813 µM
Efflux ratio [8]: 1.00

C[C@H](N)CS(=O)(=O)c1ccc(-c2cccc3[nH]cnc23)c(-c2nn[nH]n2)c1S(N)(=O)=O [Example 355]
IC50 [1]: 327 pM
IC50 [2]: 164 pM
Escherichia coli MITC95 [3]: 1.563 µM
Serratia marcescens MITC95 [4]: 1.563 µM
Klebsiella pneumoniae MITC95 [5]: 3.125 µM
P. aeruginosa expressing IMP-1, efflux− (MB9799) MITC95 [6]: 1.563 µM
IC50 [7]: 165 pM
P. aeruginosa expressing IMP-1, efflux+ (MB9798) MITC95 [8]: 3.125 µM
Efflux ratio [8]: 2.00

N[C@H](CO)CS(=O)(=O)c1ccc(-c2cccc3[nH]cnc23)c(-c2nn[nH]n2)c1S(N)(=O)=O [Example 356, (R)-6-((2-amino-3-hydroxypropyl)sulfonyl)-3-(1H-benzo[d]imidazol-4-yl)-2-(2H-tetrazol-5-yl) benzenesulfonamide]
IC50 [1]: 496 pM
IC50 [2]: 270 pM
Escherichia coli MITC95 [3]: 1.563 µM
Serratia marcescens MITC95 [4]: 1.563 µM
Klebsiella pneumoniae MITC95 [5]: 3.125 µM
P. aeruginosa expressing IMP-1, efflux− (MB9799) MITC95 [6]: 1.563 µM
IC50 [7]: 344 pM
P. aeruginosa expressing IMP-1, efflux+ (MB9798) MITC95 [8]: 1.563 µM
Efflux ratio [8]: 1.00

N[C@@H](CO)CS(=O)(=O)c1ccc(-c2cccc3[nH]cnc23)c(-c2nn[nH]n2)c1S(N)(=O)=O [Example 357, (S)-6-((2-amino-3-hydroxypropyl)sulfonyl)-3-(1H-benzo[d]imidazol-4-yl)-2-(2H-tetrazol-5-yl) benzenesulfonamide]
IC50 [1]: 294 pM
IC50 [2]: 163 pM
Escherichia coli MITC95 [3]: 1.563 µM
Serratia marcescens MITC95 [4]: 1.563 µM
Klebsiella pneumoniae MITC95 [5]: 3.125 µM
P. aeruginosa expressing IMP-1, efflux− (MB9799) MITC95 [6]: 1.563 µM
IC50 [7]: 249 pM
P. aeruginosa expressing IMP-1, efflux+ (MB9798) MITC95 [8]: 0.7813 µM
Efflux ratio [8]: 0.50

NC[C@@H](CO)S(=O)(=O)c1ccc(-c2cccc3nc(N)[nH]c23)c(-c2nn[nH]n2)c1S(N)(=O)=O [Example 358, (S)-3-(2-amino-1H-benzo[d]imidazol-7-yl)-6-((1-amino-3-hydroxypropan-2-yl)sulfonyl)-2-(1H-tetrazol-5-yl) benzenesulfonamide]
IC50 [1]: 1150 pM
IC50 [2]: 221 pM
Escherichia coli MITC95 [3]: 0.7813 µM
Serratia marcescens MITC95 [4]: 0.7813 µM
Klebsiella pneumoniae MITC95 [5]: 1.563 µM
P. aeruginosa expressing IMP-1, efflux− (MB9799) MITC95 [6]: 0.7813 µM
IC50 [7]: 789 pM
P. aeruginosa expressing IMP-1, efflux+ (MB9798) MITC95 [8]: 0.7813 µM
Efflux ratio [8]: 1.00

C[C@@H](N)CS(=O)(=O)c1ccc(-c2cccc3[nH]cnc23)c(-c2nn[nH]n2)c1S(N)(=O)=O [Example 359]
IC50 [1]: 454 pM
IC50 [2]: 286 pM
Escherichia coli MITC95 [3]: 1.563 µM
Serratia marcescens MITC95 [4]: 1.563 µM
Klebsiella pneumoniae MITC95 [5]: 1.563 µM
P. aeruginosa expressing IMP-1, efflux− (MB9799) MITC95 [6]: 0.7813 µM
IC50 [7]: 316 pM
P. aeruginosa expressing IMP-1, efflux+ (MB9798) MITC95 [8]: 1.563 µM
Efflux ratio [8]: 2.00

NC[C@@H](N)CS(=O)(=O)c1ccc(-c2cccc3[nH]c(N)nc23)c(-c2nn[nH]n2)c1S(N)(=O)=O [Example 360, (R)-3-(2-amino-1H-benzo[d]imidazol-4-yl)-6-((2,3-diaminopropyl)sulfonyl)-2-(2H-tetrazol-5-yl) benzenesulfonamide]
IC50 [1]: 544 pM
IC50 [2]: 65.4 pM
Escherichia coli MITC95 [3]: 0.25 µM
Serratia marcescens MITC95 [4]: 1.391 µM
Klebsiella pneumoniae MITC95 [5]: 1.781 µM
P. aeruginosa expressing IMP-1, efflux− (MB9799) MITC95 [6]: 1.281 µM
IC50 [7]: 287 pM
P. aeruginosa expressing IMP-1, efflux+ (MB9798) MITC95 [8]: 0.8906 µM
Efflux ratio [8]: 0.70

NC[C@@H](O)CS(=O)(=O)c1ccc(-c2cccc3[nH]cnc23)c(-c2nn[nH]n2)c1S(N)(=O)=O [Example 361, (R)-6-((3-amino-2-hydroxypropyl)sulfonyl)-3-(1H-benzo[d]imidazol-4-yl)-2-(2H-tetrazol-5-yl) benzenesulfonamide]
IC50 [1]: 174 pM
IC50 [2]: 90.5 pM
Escherichia coli MITC95 [3]: 0.7813 µM
Serratia marcescens MITC95 [4]: 0.7813 µM
Klebsiella pneumoniae MITC95 [5]: 1.563 µM
P. aeruginosa expressing IMP-1, efflux− (MB9799) MITC95 [6]: 0.7813 µM
IC50 [7]: 253 pM
P. aeruginosa expressing IMP-1, efflux+ (MB9798) MITC95 [8]: 0.7813 µM
Efflux ratio [8]: 1.00

Cn1c(N)nc2c(-c3ccc(S(=O)(=O)C[C@H](O)CN)c(S(N)(=O)=O)c3-c3nn[nH]n3)cccc21 [Example 362, (R)-3-(2-amino-1-methyl-1H-benzo[d]imidazol-4-yl)-6-((3-amino-2-hydroxypropyl)sulfonyl)-2-(2H-tetrazol-5-yl) benzenesulfonamide]
IC50 [1]: 408 pM
IC50 [2]: 295 pM
Escherichia coli MITC95 [3]: 0.3906 µM
Serratia marcescens MITC95 [4]: 0.7813 µM
Klebsiella pneumoniae MITC95 [5]: 1.563 µM
P. aeruginosa expressing IMP-1, efflux− (MB9799) MITC95 [6]: 0.7813 µM
IC50 [7]: 605 pM
P. aeruginosa expressing IMP-1, efflux+ (MB9798) MITC95 [8]: 0.7813 µM
Efflux ratio [8]: 1.00
